Test results: ChEMBL document CHEMBL5465560, “Selectivity Literature for EUbOPEN Chemogenomic Library” (2024)

Legend:
[1] = target: Casein kinase I isoform gamma-1 (Homo sapiens) (UniProt Q9HCP0); assay: Selectivity interaction (KinomeScan (DiscoverX)) EUB0001049a CSNK1G1; settings: at 1 µM
[2] = target: [Pyruvate dehydrogenase (acetyl-transferring)] kinase isozyme 1, mitochondrial (Homo sapiens, UniProt Q15118); assay: Selectivity interaction (Kinase panel (Invitrogen)) EUB0000639a PDK1; settings: at 200 nM
[3] = target: T1, Dual specificity mitogen-activated protein kinase kinase 7 (Homo sapiens) (UniProt O14733); assay: Selectivity interaction (Kinase screening (Nanosyn)) EUB0000604a MAP2K7
T1 sequence (whole entry): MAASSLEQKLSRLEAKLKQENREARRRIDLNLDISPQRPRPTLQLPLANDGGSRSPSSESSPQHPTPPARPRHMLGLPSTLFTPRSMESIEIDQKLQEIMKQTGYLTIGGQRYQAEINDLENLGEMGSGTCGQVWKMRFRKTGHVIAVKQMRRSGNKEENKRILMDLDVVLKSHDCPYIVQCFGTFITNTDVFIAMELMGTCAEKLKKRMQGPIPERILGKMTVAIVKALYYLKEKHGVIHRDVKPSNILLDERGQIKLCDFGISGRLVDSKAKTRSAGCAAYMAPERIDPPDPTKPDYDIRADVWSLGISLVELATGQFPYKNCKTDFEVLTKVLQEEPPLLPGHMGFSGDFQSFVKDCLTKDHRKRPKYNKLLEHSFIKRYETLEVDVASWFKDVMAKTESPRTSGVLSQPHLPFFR

[4] = target: T2, Serine/threonine-protein kinase Sgk3 (Homo sapiens) (UniProt Q96BR1); assay: Selectivity interaction (Kinase screening (Nanosyn)) EUB0000604a SGK3
T2 sequence (whole entry): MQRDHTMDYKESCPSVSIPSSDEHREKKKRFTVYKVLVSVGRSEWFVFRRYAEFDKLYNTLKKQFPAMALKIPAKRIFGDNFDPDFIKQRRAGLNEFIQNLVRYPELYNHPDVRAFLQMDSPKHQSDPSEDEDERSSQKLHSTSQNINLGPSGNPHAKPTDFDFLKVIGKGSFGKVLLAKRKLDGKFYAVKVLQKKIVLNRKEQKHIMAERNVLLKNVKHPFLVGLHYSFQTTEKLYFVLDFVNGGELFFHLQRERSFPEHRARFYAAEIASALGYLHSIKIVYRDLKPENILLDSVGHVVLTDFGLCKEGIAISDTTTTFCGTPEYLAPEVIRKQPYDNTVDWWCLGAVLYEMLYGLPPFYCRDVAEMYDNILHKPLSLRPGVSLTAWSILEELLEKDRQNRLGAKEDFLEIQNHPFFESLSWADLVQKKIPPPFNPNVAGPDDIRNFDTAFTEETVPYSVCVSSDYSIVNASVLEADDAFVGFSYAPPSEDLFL

[5] = target: Serine/threonine-protein kinase 10 (Homo sapiens) (UniProt O94804); assay: Selectivity interaction (Ambit KINOMEscan and KiNATiv profiling in Jurkat cells) EUB0000090b STK10; assay type: cell-based; settings: at 1 µM
[6] = target: NT-3 growth factor receptor (Homo sapiens, UniProt Q16288); assay: Selectivity interaction (KinomeScan (DiscoverX)) EUB0001619a NTRK3; settings: at 1 µM
[7] = target: T3, Tyrosine-protein kinase JAK3 (Homo sapiens) (UniProt P52333); assay: Selectivity interaction (Upstate Kinase Profiler service (Millipore)) EUB0000056c JAK3; settings: at 1 µM
T3 sequence (whole entry): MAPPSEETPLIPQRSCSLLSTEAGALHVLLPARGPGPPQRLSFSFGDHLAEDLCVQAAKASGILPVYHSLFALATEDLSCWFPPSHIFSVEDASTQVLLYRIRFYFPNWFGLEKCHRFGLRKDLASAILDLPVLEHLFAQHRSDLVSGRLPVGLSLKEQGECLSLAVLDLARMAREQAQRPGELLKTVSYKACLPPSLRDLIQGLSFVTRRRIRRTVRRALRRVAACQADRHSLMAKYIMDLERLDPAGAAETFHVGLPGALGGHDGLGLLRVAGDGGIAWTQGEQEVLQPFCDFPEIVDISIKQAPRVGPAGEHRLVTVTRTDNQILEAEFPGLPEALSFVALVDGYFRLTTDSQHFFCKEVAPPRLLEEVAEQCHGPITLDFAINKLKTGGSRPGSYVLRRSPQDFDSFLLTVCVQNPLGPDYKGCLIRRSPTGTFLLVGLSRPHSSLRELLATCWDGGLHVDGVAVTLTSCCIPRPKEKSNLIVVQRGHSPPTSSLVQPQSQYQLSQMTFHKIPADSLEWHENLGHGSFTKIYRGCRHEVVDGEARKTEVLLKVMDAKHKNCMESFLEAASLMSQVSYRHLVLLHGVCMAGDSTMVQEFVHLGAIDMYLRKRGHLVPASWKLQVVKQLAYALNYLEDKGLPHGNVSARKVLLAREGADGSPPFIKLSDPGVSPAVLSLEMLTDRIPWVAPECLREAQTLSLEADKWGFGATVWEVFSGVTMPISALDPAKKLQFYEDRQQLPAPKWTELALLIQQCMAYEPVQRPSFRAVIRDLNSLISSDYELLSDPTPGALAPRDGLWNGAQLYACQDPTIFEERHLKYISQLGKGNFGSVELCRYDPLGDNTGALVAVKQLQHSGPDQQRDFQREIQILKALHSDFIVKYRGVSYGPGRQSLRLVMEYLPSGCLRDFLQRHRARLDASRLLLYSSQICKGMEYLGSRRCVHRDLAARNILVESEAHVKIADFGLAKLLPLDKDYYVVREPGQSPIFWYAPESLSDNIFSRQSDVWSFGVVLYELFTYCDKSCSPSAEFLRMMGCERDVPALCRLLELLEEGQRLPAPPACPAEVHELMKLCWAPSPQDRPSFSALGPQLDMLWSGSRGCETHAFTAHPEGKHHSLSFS

Serine/threonine-protein kinase 10 (Homo sapiens), sequence (O94804 whole entry, looked up): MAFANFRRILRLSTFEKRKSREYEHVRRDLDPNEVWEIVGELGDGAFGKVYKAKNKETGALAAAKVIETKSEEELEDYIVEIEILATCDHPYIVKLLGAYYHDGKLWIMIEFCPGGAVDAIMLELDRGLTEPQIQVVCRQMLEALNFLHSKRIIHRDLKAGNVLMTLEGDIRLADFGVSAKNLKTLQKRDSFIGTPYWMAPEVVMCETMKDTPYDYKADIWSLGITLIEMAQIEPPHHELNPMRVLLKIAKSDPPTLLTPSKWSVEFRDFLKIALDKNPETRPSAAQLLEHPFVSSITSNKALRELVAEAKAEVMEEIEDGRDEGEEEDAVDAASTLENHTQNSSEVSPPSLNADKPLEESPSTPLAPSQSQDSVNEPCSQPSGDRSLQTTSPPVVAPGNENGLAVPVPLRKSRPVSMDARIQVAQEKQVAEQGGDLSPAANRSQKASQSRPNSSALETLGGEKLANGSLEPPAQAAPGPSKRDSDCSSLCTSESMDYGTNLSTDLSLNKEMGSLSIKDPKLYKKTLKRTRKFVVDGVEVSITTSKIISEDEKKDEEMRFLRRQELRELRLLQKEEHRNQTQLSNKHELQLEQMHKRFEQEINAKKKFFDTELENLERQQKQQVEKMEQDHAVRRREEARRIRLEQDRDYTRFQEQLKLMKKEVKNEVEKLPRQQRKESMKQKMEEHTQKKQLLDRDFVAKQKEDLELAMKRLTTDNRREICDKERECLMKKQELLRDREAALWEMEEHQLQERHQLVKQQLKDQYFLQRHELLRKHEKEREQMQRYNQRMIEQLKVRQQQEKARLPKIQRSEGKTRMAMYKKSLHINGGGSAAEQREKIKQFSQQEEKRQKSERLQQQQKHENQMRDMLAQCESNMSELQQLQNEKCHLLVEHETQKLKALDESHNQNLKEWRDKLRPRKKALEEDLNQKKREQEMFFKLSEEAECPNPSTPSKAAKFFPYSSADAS
Casein kinase I isoform gamma-1 (Homo sapiens), sequence (Q9HCP0 whole entry, looked up, canonical isoform): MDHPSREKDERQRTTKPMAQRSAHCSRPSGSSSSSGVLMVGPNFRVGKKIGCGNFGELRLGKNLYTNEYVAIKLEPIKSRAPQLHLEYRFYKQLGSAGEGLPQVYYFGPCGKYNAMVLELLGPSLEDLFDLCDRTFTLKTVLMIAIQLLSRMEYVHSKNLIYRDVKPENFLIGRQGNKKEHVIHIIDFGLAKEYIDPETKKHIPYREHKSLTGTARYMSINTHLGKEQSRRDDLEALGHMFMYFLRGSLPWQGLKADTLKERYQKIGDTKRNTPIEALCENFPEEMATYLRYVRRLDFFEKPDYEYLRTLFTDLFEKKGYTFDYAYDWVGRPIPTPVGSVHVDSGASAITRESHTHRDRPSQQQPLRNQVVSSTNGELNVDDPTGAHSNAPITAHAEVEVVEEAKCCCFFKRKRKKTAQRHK
NT-3 growth factor receptor, sequence (Q16288 32-839 limits assumed): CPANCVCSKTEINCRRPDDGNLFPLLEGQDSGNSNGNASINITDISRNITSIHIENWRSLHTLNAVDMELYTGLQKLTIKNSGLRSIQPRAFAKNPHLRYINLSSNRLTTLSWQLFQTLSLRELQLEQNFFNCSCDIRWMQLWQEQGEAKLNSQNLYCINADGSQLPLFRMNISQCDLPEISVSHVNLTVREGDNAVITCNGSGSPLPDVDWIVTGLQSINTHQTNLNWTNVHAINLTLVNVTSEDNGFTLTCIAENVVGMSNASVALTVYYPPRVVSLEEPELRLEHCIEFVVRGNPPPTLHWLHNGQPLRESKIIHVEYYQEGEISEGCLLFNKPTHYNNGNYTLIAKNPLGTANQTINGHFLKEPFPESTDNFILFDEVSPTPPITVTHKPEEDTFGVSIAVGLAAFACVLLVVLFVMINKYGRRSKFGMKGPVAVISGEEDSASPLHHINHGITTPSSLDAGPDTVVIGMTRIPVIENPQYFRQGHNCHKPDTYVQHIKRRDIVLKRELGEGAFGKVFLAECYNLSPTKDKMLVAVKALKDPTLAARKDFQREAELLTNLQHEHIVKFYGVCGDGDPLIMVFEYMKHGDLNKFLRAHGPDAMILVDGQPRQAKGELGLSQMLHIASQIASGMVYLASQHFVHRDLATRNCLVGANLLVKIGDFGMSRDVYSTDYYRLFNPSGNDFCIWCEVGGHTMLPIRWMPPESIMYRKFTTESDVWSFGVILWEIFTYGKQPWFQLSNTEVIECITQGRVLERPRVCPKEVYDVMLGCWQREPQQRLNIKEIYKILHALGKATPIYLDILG

COc1cc(Nc2nc(C)cc(-c3cnn4nc(OC)ccc34)n2)cc(C(F)(F)F)c1
% of control [1]: 100%

CC[C@@H]1[C@H](F)C(=O)N[C@@H]1COc1nccc2cc(C(N)=O)c(OC)cc12 [ZIMLOVISERTIB]
% of inhibition [2]: 15.8%

Cc1cnc(Nc2ccc(F)cc2Cl)nc1-c1c[nH]c(C(=O)N[C@H](CO)c2cccc(Cl)c2)c1
% of inhibition [3]: 6% | % of inhibition [4]: 2%

CN(C)C/C=C/C(=O)Nc1ccc(C(=O)N2CCCC(Nc3ncc(Cl)c(-c4c[nH]c5ccccc45)n3)C2)cc1 (configuration not stated)
% of control [5]: 80%

N#Cc1cccc(-c2c[nH]c3ncnc(N4CCOCC4)c23)c1
% of control [6]: 84%

Cc1ccc(-c2ccc3c(ccc4sc5c(c43)NC[C@@H](C)NC5=O)n2)cn1
% of inhibition [7]: 4%
